In this test the target is T1, NKG2D-Fc (Homo sapiens, UniProt P26718).
T1 construct: the extracellular domain of NKG2D was fused with an IgG Fc fragment; made in house; host or cells: CHO cells
T1 sequence (P26718 73-216 limits assumed): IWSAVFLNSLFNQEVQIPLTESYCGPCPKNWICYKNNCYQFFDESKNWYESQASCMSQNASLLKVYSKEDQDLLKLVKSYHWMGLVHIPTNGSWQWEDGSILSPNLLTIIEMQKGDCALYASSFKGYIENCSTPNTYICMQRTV
Briefly: Flow cytometry on streptavidin sepharose beads coated with NKG2D-Fc. It counts as binding. To be noted: 300 nM. Here is the method:
HT1080.hPSMA and PC3.hACP3 cell lines were generated by lentiviral transduction on wild type cells (HT1080.wt and PC3.wt), according to published procedures9. For long-term storage, cell lines were maintained in liquid nitrogen. Prior to in vitro and in vivo experiments, cells were cultured in DMEM (PC3.wt, PC3.hACP3, HT1080.wt, and HT1080.hPSMA) or RPMI medium (SK-RC-52) (medium provided by Invitrogen) supplemented with FCS (10%, Invitrogen) and antibiotic-antimycotic (1%, AA, Invitrogen) at 37 °C and 5% CO2. For passaging, cells were detached using Trypsin-EDTA 0.05% (Invitrogen) when reaching 90% confluency and re-seeded at a dilution of 1:3 (PC3.hACP3 and PC3.wt) […]
2.17 Flow cytometry experiments on cells
Cancer cells were detached with an Accutase® cell detachment solution, resuspended in a standard culture medium, and transferred to falcon tubes. Cells were counted and centrifuged at 400 rcf for 3 min. […] Data were acquired halting the measurement at 10´ 000 events on a Cytoflex S flow cytometer (Beckman Coulter), and analyzed using the FlowJo software v10 (BD Biosciences). […]
plate (20 µL/well). […] Data were acquired halting the measurement at 10’000 events on a Cytoflex S flow cytometer (Beckman Coulter) and analyzed using the FlowJo software v10 (BD Biosciences). […]
(In general: A flow cytometer gives signals particle by particle.)

Take `CC(C)Oc1ccc(-c2cccc(C[C@H](NC(=O)c3ccccc3-c3ccc(C(F)(F)F)cc3)C(=O)N[C@@H](CCCCNC(=S)Nc3ccc4c(c3)C(=O)OC43c4ccc(O)cc4Oc4cc(O)ccc43)C(=O)O)c2)c(F)c1` [compound 30]: the “binding on NKG2D-Fc-coated streptavidin sepharose beads by flow cytometry” value is recorded as “significant shift in binding”.

The record behind these values is PMC12463120, “Phenylalanine‐Based DNA‐Encoded Chemical Libraries for the Discovery of Potent and Selective Small Organic Ligands Against Markers of Cancer and Immune Cells” (Advanced Science, 2025).
